Values of other authors in patent US8571804B2, “Disease treatment by predicting drug association” (Pharnext, priority 2007, dated 2013).

How the values were obtained:
[1] = tested on: CMT animal models
[2] = tested on: PMP22-transgenic CMT1A rat model

| Structure (SMILES) | clinical features [1] | clinical symptoms ([2]; compared with placebo-treated controls) | expression of PMP22 protein ([2]; transgenic rodents, antiprogestin treatment) |
| --- | --- | --- | --- |
| O=C1O[C@H]([C@@H](O)CO)C(O)=C1O [ascorbic acid] | improve clinical features |  |  |
| CN(C)c1ccc([C@H]2C[C@]3(C)[C@@H](CC[C@]3(O)CCCO)[C@@H]3CCC4=CC(=O)CCC4=C32)cc1 [onapristone] |  | significantly improved clinical symptoms | decreased expression of PMP22 protein |
